System: Plasmodium berghei
Assay: Luciferase/luciferin-expressing antifolate-resistant parasites were used to infect a culture of HepG2 cells that were pre-incubated with compounds. Infected hepatocytes emit light due to the luciferase reaction. Assay results are presented as the percent inhibition of light emission compared to control. […]
Format: functional
Conditions: sporozoite; for IC90: read-out: LUCIFERASE INFECTION ASSAY - IC90
[1] = read-out: LUCIFERASE INFECTION ASSAY - IC50

| SMILES | IC90 [µM] | IC50 [1] [µM] | further results |
| --- | --- | --- | --- |
| c1ccc(-c2nc3sccn3c2CSc2nnnn2C2CCCC2)cc1 | > 10 | – | IC50 (PBLUC_HILL_SLOPE 2.99, PBLUC_R_SQUARED 0.0258, read-out: LUCIFERASE INFECTION ASSAY - IC50): 8.01 µM |
| COc1cc(-c2cnc3cnc(-c4cccnc4)cn23)ccc1O | 3.99 | – | IC50 (PBLUC_HILL_SLOPE 15.7, PBLUC_R_SQUARED 0.533, read-out: LUCIFERASE INFECTION ASSAY - IC50): 3.47 µM |
| COc1ccccc1N(C)S(=O)(=O)c1ccc(C)c(C(=O)Nc2nc3ccccc3s2)c1 | 8.14 | – | IC50 (PBLUC_HILL_SLOPE 17.5, PBLUC_R_SQUARED 0.446, read-out: LUCIFERASE INFECTION ASSAY - IC50): 7.18 µM |
| FC(F)(F)c1c(-c2ccccc2)c2cc(Cl)ccc2n1Cc1ccccc1 | > 8.55 | – | IC50 (PBLUC_HILL_SLOPE 1.92, PBLUC_R_SQUARED 0.0693, read-out: LUCIFERASE INFECTION ASSAY - IC50): 7.21 µM |
| Cc1nn(-c2ccc(C(=O)Nc3nc(CN4CCCC4)cs3)cc2)c(C)c1Cl | 7.87 | – | IC50 (PBLUC_HILL_SLOPE 4.86, PBLUC_R_SQUARED 0.713, read-out: LUCIFERASE INFECTION ASSAY - IC50): 5.01 µM |
| O=C1Nc2ccccc2/C1=C/c1ccc(C(F)(F)F)cc1Cl | > 10.2 | > 10.2 | – |
| COc1ccc(-c2ccnc3n[nH]c(-c4ccccc4)c23)cc1OC | 3.3 | – | IC50 (HEPG2TOX_HILL_SLOPE 2.45, HEPG2TOX_R_SQUARED 0.911, PBLUC_HILL_SLOPE 2.73, PBLUC_R_SQUARED 0.663, read-out: LUCIFERASE INFECTION ASSAY - IC50): 1.48 µM |
| O=C(NCC12CC3CC(CC(C3)C1)C2)c1ccc2ccccc2c1 | > 10 | > 10 | – |
| CC(NC(=O)Nc1ccc(C#N)cc1)c1ccc2ccccc2c1 (centres undefined) | > 10 | – | IC50 (PBLUC_HILL_SLOPE 12.1, PBLUC_R_SQUARED 0.463, read-out: LUCIFERASE INFECTION ASSAY - IC50): 9.4 µM |
| Cc1ccc(C(C)C)cc1OS(=O)(=O)c1ccc(S(=O)(=O)N(C)C)cc1[N+](=O)[O-] | > 10 | > 10 | – |
| COc1cccc(C(=O)Nc2cccc(Nc3ccc(-c4cccc(NC(C)=O)c4)cn3)c2)c1 | > 7.29 | > 7.29 | – |
| N#C/C(=C\Nc1ccc(OC(F)(F)F)cc1)S(=O)(=O)c1ccc(Cl)cc1 | > 8.19 | > 8.19 | – |
| O=C(COc1ccccc1C(=O)N/N=C/c1ccccc1O)Nc1ccc(SC(F)F)cc1 | 1.53 | – | IC50 (HEPG2TOX_HILL_SLOPE 0.754, HEPG2TOX_R_SQUARED 0.891, PBLUC_HILL_SLOPE 11.1, PBLUC_R_SQUARED 0.496, read-out: LUCIFERASE INFECTION ASSAY - IC50): 1.26 µM |
| CCn1c(=O)n(Cc2ncc(-c3cccc(Cl)c3)o2)c2ccccc21 | > 10 | – | IC50 (PBLUC_HILL_SLOPE 1.51, PBLUC_R_SQUARED 0.651, read-out: LUCIFERASE INFECTION ASSAY - IC50): 5.23 µM |
| O=C(Nc1ccc(-c2nc3ccccc3[nH]2)cc1)c1cnn(-c2ccccc2)c1C1CC1 | 3.59 | 3.31 | – |
| Cc1nc(SCC(=O)N2c3ccccc3Sc3ccccc32)n(CC(C)C)c1C | > 10 | > 10 | – |
| CC(=O)Nc1ccc(Sc2cc(C)nc(C(C)C)n2)cc1 | 9.81 | – | IC50 (PBLUC_HILL_SLOPE 2.86, PBLUC_R_SQUARED 0.342, read-out: LUCIFERASE INFECTION ASSAY - IC50): 4.56 µM |
| CCOC(=O)c1c(C)[nH]c(N=Nc2ccc3c(c2)OCO3)c1C | > 10 | 9.43 | – |
| Cc1nn(-c2ccccc2)c(Cl)c1/C=N/Nc1nc2ccccc2[nH]1 | > 10 | – | IC50 (PBLUC_HILL_SLOPE 3.35, PBLUC_R_SQUARED 0.119, read-out: LUCIFERASE INFECTION ASSAY - IC50): 7.2 µM |
| O=C(NCCc1cccs1)N1CCc2nc(NCc3cccc(Oc4ccccc4)c3)ncc2C1 | > 6.8 | > 6.8 | – |
| Cc1ccc(C2c3c(-c4cc(C)cc(C)c4O)n[nH]c3C(=O)N2CCCO)cc1 (centres undefined) | > 8.43 | – | IC50 (HEPG2TOX_HILL_SLOPE 0.468, HEPG2TOX_R_SQUARED 0.76, PBLUC_HILL_SLOPE 1.88, PBLUC_R_SQUARED 0.575, read-out: LUCIFERASE INFECTION ASSAY - IC50): 5.49 µM |
| O=C1CC(c2cccc(Cl)c2Cl)c2c([nH]c(-c3ccccc3)nc2=O)N1 (centres undefined) | > 8.54 | > 8.54 | – |
| O=c1cc(CN2CCCCCC2)nc2sccn12 | 1.39 | 1.12 | – |
| Cc1ccc(CNc2ccc3nnc(C(F)(F)F)n3n2)cc1 | > 10 | – | IC50 (FFLUC_HILL_SLOPE 15, FFLUC_R_SQUARED 0.243, read-out: LUCIFERASE INFECTION ASSAY - IC50): > 10 µM |

| SMILES | IC90 [µM] | IC50 [1] [µM] | further results |
| --- | --- | --- | --- |
| COc1cc(/C=C/C(=O)Nc2nc3c(s2)CC(C)CC3)cc(OC)c1 (centres undefined) | > 10 | > 10 | – |
| c1ccc(-c2csc3ncnc(Sc4nnc(C5COc6ccccc6O5)n4-c4ccccc4)c23)cc1 (centres undefined) | > 10 | > 10 | – |
| C=S(=O)(NS(=O)(=O)c1ccc(-c2cc(C(F)(F)F)n(C)n2)s1)c1ccc(Cl)cc1 (centres undefined) | > 6.82 | > 6.82 | – |
| CC(C(=O)NC(C)(C)C)N1CCN(CC(=O)Nc2ccc(F)cc2)CC1 (centres undefined) | > 10 | > 10 | – |
| Cc1noc(N)c1C(=O)OCc1cccc2cccnc12 | > 10 | – | IC50 (HEPG2TOX_HILL_SLOPE 10.3, HEPG2TOX_R_SQUARED 0.154, PBLUC_HILL_SLOPE 14, PBLUC_R_SQUARED 0.377, read-out: LUCIFERASE INFECTION ASSAY - IC50): 9.17 µM |
| O=C(NCCSCc1ccc(Cl)cc1Cl)c1ccc(Cl)cc1 | > 8.81 | – | IC50 (PBLUC_HILL_SLOPE 13.4, PBLUC_R_SQUARED 0.244, read-out: LUCIFERASE INFECTION ASSAY - IC50): 7.79 µM |
| CSc1nn(-c2ccc(C(=O)OCc3c(C)cc(C(C)(C)C)cc3C)cc2)c(=S)s1 | > 10 | > 10 | – |
| Cc1cc(C)cc(Nc2ncnc3ccsc23)c1 | > 10 | – | IC50 (HEPG2TOX_HILL_SLOPE 6.98, HEPG2TOX_R_SQUARED 0.366, PBLUC_HILL_SLOPE 11.4, PBLUC_R_SQUARED 0.0607, read-out: LUCIFERASE INFECTION ASSAY - IC50): > 10 µM |
| O=C(NCc1ccccc1OC1CCCC1)Nc1nnc(C2CC2)s1 | 7.55 | – | IC50 (HEPG2TOX_HILL_SLOPE 1.24, HEPG2TOX_R_SQUARED 0.927, PBLUC_HILL_SLOPE 4.07, PBLUC_R_SQUARED 0.516, read-out: LUCIFERASE INFECTION ASSAY - IC50): 4.4 µM |
| COc1ccc([N+](=O)[O-])cc1C(=O)Nc1nc2c(s1)CCCCC2 | 0.411 | – | IC50 (FFLUC_HILL_SLOPE 3.14, FFLUC_R_SQUARED 0.813, PBLUC_HILL_SLOPE 0.763, PBLUC_R_SQUARED 0.879, read-out: LUCIFERASE INFECTION ASSAY - IC50): 0.0231 µM |
| O=C(Nc1nc2ccccc2[nH]1)c1oc2ccccc2c1CSCc1ccccc1 | 5.1 | – | IC50 (HEPG2TOX_HILL_SLOPE 3.05, HEPG2TOX_R_SQUARED 0.924, PBLUC_HILL_SLOPE 8.31, PBLUC_R_SQUARED 0.524, read-out: LUCIFERASE INFECTION ASSAY - IC50): 3.92 µM |
| COc1ccc(-c2csc3ncnc(NCC(=O)NC(C)C)c23)cc1 | > 10 | – | IC50 (HEPG2TOX_HILL_SLOPE 2.82, HEPG2TOX_R_SQUARED 0.984, PBLUC_HILL_SLOPE 1.1, PBLUC_R_SQUARED 0.732, read-out: LUCIFERASE INFECTION ASSAY - IC50): 2.59 µM |
| Cc1noc2nc(C(C)C)cc(C(=O)Nc3nc4ccccc4[nH]3)c12 | > 10 | > 10 | – |
| O=C(NCC1COc2ccccc2O1)c1cccc(S(=O)(=O)N2CCC(Cc3ccccc3)CC2)c1 (centres undefined) | > 10 | > 10 | – |
| NC(CCc1ccccc1)c1csc(NC(=O)Nc2ccccc2)n1 (centres undefined) | > 9.36 | – | IC50 (PBLUC_HILL_SLOPE 42.7, PBLUC_R_SQUARED 0.194, read-out: LUCIFERASE INFECTION ASSAY - IC50): 9.14 µM |
| O=C(Nc1nc2ccccn2c1C(=O)NC1CCCC1)c1ccccc1 | 7.5 | – | IC50 (HEPG2TOX_HILL_SLOPE 3.22, HEPG2TOX_R_SQUARED 0.898, PBLUC_HILL_SLOPE 4.41, PBLUC_R_SQUARED 0.561, read-out: LUCIFERASE INFECTION ASSAY - IC50): 4.56 µM |
| COc1cccc(CNC(=O)Nc2ccc3nc(Cc4ccccc4)nn3c2)c1 | > 10 | – | IC50 (HEPG2TOX_HILL_SLOPE 13.6, HEPG2TOX_R_SQUARED 0.936, PBLUC_HILL_SLOPE 1.17, PBLUC_R_SQUARED 0.525, read-out: LUCIFERASE INFECTION ASSAY - IC50): 2.14 µM |
| Cc1ccc(NC(=O)COc2ccc(CCO)cc2-n2nc3ccccc3n2)cc1C | > 10 | > 10 | – |
| Cc1sc2nc(CN3CCCC3)nc(Oc3ccc4ccncc4c3)c2c1C | > 10 | 9.51 | – |
| CCCNC(=O)c1c(NC(=O)c2cc(OC)cc(OC)c2)nc2ccccn12 | > 8.63 | – | IC50 (PBLUC_HILL_SLOPE 11.4, PBLUC_R_SQUARED 0.597, read-out: LUCIFERASE INFECTION ASSAY - IC50): 7.32 µM |
| Cc1cc(S(=O)(=O)Oc2ccccc2C(N)=O)ccc1-n1cnnn1 | > 10 | – | IC50 (PBLUC_HILL_SLOPE 12.6, PBLUC_R_SQUARED 0.0652, read-out: LUCIFERASE INFECTION ASSAY - IC50): 9.07 µM |
| Cc1ccc(/C=C/c2ccc3ccccc3[n+]2C)cc1 | > 8.52 | – | IC50 (PBLUC_HILL_SLOPE 12.2, PBLUC_R_SQUARED 0.0729, read-out: LUCIFERASE INFECTION ASSAY - IC50): 8.36 µM |
| CC(C)Cn1c(N)c(C(=O)CSc2nc(=O)c3c4c(sc3[nH]2)CCCC4)c(=O)n(C)c1=O | > 10 | – | IC50 (HEPG2TOX_HILL_SLOPE 0.911, HEPG2TOX_R_SQUARED 0.885, PBLUC_HILL_SLOPE 2, PBLUC_R_SQUARED 0.249, read-out: LUCIFERASE INFECTION ASSAY - IC50): 5.58 µM |

Reference: ChEMBL document CHEMBL4483862, “Open-source discovery of chemical leads for next-generation chemoprotective antimalarials” (2018)
